Experimental data from patent US9382197B2, “Substituted hydroxamic acids and uses thereof” (Millennium Pharmaceuticals, Inc., priority 2010, dated 2016).

Target: T1, purified human HDAC6 (Homo sapiens, UniProt Q9UBN7)
T1 construct: purchased BPS Bioscience 5006
T1 sequence (Q9UBN7 1-1215): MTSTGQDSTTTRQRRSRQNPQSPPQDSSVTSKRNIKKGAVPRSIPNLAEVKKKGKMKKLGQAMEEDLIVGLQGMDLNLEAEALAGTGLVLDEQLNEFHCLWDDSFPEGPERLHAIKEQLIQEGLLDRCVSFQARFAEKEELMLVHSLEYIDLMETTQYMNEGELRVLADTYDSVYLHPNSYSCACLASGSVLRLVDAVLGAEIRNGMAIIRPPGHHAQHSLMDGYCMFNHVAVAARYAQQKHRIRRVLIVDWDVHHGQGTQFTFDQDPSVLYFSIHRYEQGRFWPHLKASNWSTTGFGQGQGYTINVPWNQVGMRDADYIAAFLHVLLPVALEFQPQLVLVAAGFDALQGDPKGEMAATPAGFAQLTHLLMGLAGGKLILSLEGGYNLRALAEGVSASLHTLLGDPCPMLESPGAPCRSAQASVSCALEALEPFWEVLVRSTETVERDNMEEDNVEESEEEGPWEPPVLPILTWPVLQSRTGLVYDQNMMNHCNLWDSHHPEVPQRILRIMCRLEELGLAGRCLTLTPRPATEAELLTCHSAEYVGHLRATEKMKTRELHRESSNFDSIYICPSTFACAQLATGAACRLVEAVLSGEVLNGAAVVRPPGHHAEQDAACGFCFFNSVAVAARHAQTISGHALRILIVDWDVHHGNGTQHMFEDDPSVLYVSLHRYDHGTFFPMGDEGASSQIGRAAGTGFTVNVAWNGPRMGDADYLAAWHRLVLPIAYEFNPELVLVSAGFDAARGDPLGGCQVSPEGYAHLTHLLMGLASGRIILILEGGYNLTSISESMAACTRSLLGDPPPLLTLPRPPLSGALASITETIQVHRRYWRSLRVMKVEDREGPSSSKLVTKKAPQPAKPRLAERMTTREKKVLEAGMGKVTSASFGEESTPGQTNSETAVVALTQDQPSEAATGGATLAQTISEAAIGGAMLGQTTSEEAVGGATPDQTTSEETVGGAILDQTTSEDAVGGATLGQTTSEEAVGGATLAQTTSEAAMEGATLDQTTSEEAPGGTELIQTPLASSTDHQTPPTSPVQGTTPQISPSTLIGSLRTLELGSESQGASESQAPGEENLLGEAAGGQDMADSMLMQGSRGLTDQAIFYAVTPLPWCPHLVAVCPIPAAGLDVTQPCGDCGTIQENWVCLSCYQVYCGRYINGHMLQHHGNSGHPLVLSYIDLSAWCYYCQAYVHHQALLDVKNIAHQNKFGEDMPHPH
Experiment: HDAC6 Enzyme Assay
Format: biochemical
Protocol: To measure the inhibition of HDAC6 activity, purified human HDAC6 (BPS Bioscience; Cat. No. 5006) is incubated with substrate Ac-Arg-Gly-Lys(Ac)-AMC peptide (Bachem Biosciences; Cat. No. 1-1925) for 1 hour at 30° C. in the presence of test compounds or vehicle DMSO control. The reaction is stopped with the HDAC inhibitor trichostatin A (Sigma; Cat. No. T8552) and the amount of Arg-Gly-Lys-AMC generated is quantitated by digestion with trypsin (Sigma; Cat. No. T1426) and subsequent measurement of the amount of AMC released using a fluorescent plate reader (Pherastar; BMG Technologies) set at Ex 340 nm and Em 460 nm. Concentration response curves are generated by calculating the fluorescence increase in test compound-treated samples relative to DMSO-treated controls, and enzyme inhibition (IC50) values are determined from those curves.

[1] = purified human HDAC6, substrate Ac-Arg-Gly-Lys(Ac)-AMC, 1 hour at 30° C., reported as bins
[2] = bin: greater than 500 nM and less than 1 μM (lower bound in nM, upper bound in μM)

Row | Compound | IC50 [1] | further results
1 | CC(NC(=O)c1cn(C)c2ccccc12)c1cccc(C(=O)NO)c1 (stereo not shown) [Compound I-353, N-(1-{3-[(hydroxyamino)carbonyl]phenyl}ethyl)-1-methyl-1H-indole-3-carboxamide] | 100 to 500 nM | 
2 | CC(C)(C)C(NC(=O)C1CCCC1)c1ccc(C(=O)NO)cc1 (stereo not shown) [Compound I-373, 4-{1-[(cyclopentylcarbonyl)amino]-2,2-dimethylpropyl}-N-hydroxybenzamide] |  | IC50 (bin: greater than 1 μM): > 1000 nM
3 | CC(C)(C)C(NC(=O)c1cccc(S(C)(=O)=O)c1)c1ccc(C(=O)NO)cc1 (stereo not shown) [Compound I-75, N-(1-{4-[(hydroxyamino)carbonyl]phenyl}-2,2-dimethylpropyl)-3-(methylsulfonyl)benzamide] |  | IC50 [2]: 500 to 1000 nM
4 | CC(C)[C@@H](NC(=O)c1cc(Cl)c(Cl)n1C)c1ccc(C(=O)NO)cc1 [Compound I-96, 4,5-dichloro-N-((1R)-1-{4-[(hydroxyamino)carbonyl]phenyl}-2-methylpropyl)-1-methyl-1H-pyrrole-2-carboxamide] | < 100 nM | 
5 | O=C(NO)c1ccc([C@H](NC(=O)c2cc3ccccc3s2)c2ccccc2)cc1 [Compound I-99, N-[(R)-{4-[(hydroxyamino)carbonyl]phenyl}(phenyl)methyl]-1-benzothiophene-2-carboxamide] | < 100 nM | 
6 | CC(C)[C@@H](NC(=O)c1ccc(-c2ccccc2)cc1)c1ccc(C(=O)NO)cc1 [Compound I-341, N-((1R)-1-{4-[(hydroxyamino)carbonyl]phenyl}-2-methylpropyl)biphenyl-4-carboxamide] | < 100 nM | 
7 | CC(C)C(NC(=O)C1(c2ccc(Cl)cc2)CC1)c1ccc(C(=O)NO)cc1 (stereo not shown) [Compound I-300, 4-[1-({[1-(4-chlorophenyl)cyclopropyl]carbonyl}amino)-2-methylpropyl]-N-hydroxybenzamide] | 100 to 500 nM | 
8 | CC(NC(=O)c1cc2oc(-c3ccc(C(F)(F)F)cc3)cc2n1C)c1cccc(C(=O)NO)c1 (stereo not shown) [Compound I-72, N-(1-{3-[(hydroxyamino)carbonyl]phenyl}ethyl)-4-methyl-2-[4-(trifluoromethyl)phenyl]-4H-furo[3,2-b]pyrrole-5-carboxamide] |  | IC50 (bin: greater than 1 μM): > 1000 nM
9 | Cc1ccc2[nH]c(C(=O)NC(C)c3cccc(C(=O)NO)c3)c(C)c2c1 (stereo not shown) [Compound I-376, N-(1-{3-[(hydroxyamino)carbonyl]phenyl}ethyl)-3,5-dimethyl-1H-indole-2-carboxamide] | 100 to 500 nM | 
10 | COc1cccc2cc(C(=O)NC(c3ccc(C(=O)NO)cc3)C(C)C)oc12 (stereo not shown) [Compound I-306, N-(1-{4-[(hydroxyamino)carbonyl]phenyl}-2-methylpropyl)-7-methoxy-1-benzofuran-2-carboxamide] | < 100 nM | 
11 | CC(NC(=O)c1ccccc1)c1ccc(C(=O)NO)cc1 (stereo not shown) [Compound I-385, 4-[1-(benzoylamino)ethyl]-N-hydroxybenzamide] | < 100 nM | 
12 | CC(C)[C@@H](NC(=O)c1cc2ccccc2n1C)c1ccc(C(=O)NO)cc1 [Compound I-242, N-((1R)-1-{4-[(hydroxyamino)carbonyl]phenyl}-2-methylpropyl)-1-methyl-1H-indole-2-carboxamide] | < 100 nM | 
13 | CC(C)[C@@H](NC(=O)Nc1ccccc1-c1ccccc1)c1ccc(C(=O)NO)cc1 [Compound I-515, 4-((1R)-1-{[(biphenyl-2-ylamino)carbonyl]amino}-2-methylpropyl)-N-hydroxybenzamide] | < 100 nM | 
14 | CCS(=O)(=O)NC(C)c1ccc(C(=O)NO)cc1 (stereo not shown) [Compound I-1, 4-{1-[(ethylsulfonyl)amino]ethyl}-N-hydroxybenzamide] | 100 to 500 nM | 
15 | CC(C)[C@@H](NC(=O)Nc1ccc2c(c1)CCO2)c1ccc(C(=O)NO)cc1 [Compound I-526, 4-((1R)-1-{[(2,3-dihydro-1-benzofuran-5-ylamino)carbonyl]amino}-2-methylpropyl)-N-hydroxybenzamide] | < 100 nM | 
16 | COc1ccc(S(=O)(=O)NC(C)c2ccc(C(=O)NO)cc2)cc1 (stereo not shown) [Compound I-47, N-hydroxy-4-(1-{[(4-methoxyphenyl)sulfonyl]amino}ethyl)benzamide] | 100 to 500 nM | 

Row | Compound | IC50 [1] | further results
17 | C[C@H](NC(=O)c1cc2ccccc2s1)c1cccc(C(=O)NO)c1 [Compound I-240, N-((1S)-1-{3-[(hydroxyamino)carbonyl]phenyl}ethyl)-1-benzothiophene-2-carboxamide] | 100 to 500 nM | 
18 | C[C@@H](NC(=O)c1cc2ccccc2n1C)c1ccc(C(=O)NO)cc1 [Compound I-115, N-((1R)-1-{4-[(hydroxyamino)carbonyl]phenyl}ethyl)-1-methyl-1H-indole-2-carboxamide] | < 100 nM | 
19 | CCC[C@@H](NS(=O)(=O)c1ccc(C(F)(F)F)cc1)c1ccc(C(=O)NO)cc1 [Compound I-171, N-hydroxy-4-[(1R)-1-({[4-(trifluoromethyl)phenyl]sulfonyl}amino)butyl]benzamide] |  | IC50 (bin: greater than 1 μM): > 1000 nM
20 | CC(C)[C@@H](NC(=O)Nc1c(F)cccc1F)c1ccc(C(=O)NO)cc1 [Compound I-521, 4-[(1R)-1-({[(2,6-difluorophenyl)amino]carbonyl}amino)-2-methylpropyl]-N-hydroxybenzamide] | < 100 nM | 
21 | CC(C)C(NC(=O)c1ccc2nsnc2c1)c1ccc(C(=O)NO)cc1 (stereo not shown) [Compound I-135, N-(1-{4-[(hydroxyamino)carbonyl]phenyl}-2-methylpropyl)-2,1,3-benzothiadiazole-5-carboxamide] | < 100 nM | 
22 | Cc1cc(C)c(CC(=O)NC(c2ccc(C(=O)NO)cc2)C(C)C)c(C)c1 (stereo not shown) [Compound I-28, N-hydroxy-4-{1-[(mesitylacetyl)amino]-2-methylpropyl}benzamide] |  | IC50 [2]: 500 to 1000 nM
23 | COc1cc(C(=O)NO)ccc1C(C)NC(=O)c1cccn1C (stereo not shown) [Compound I-481, N-(1-{4-[(hydroxyamino)carbonyl]-2-methoxyphenyl}ethyl)-1-methyl-1H-pyrrole-2-carboxamide] |  | IC50 (bin: greater than 1 μM): > 1000 nM
24 | CC(C)[C@@H](NC(=O)NC12CC3CC(CC(C3)C1)C2)c1ccc(C(=O)NO)cc1 [Compound I-354, 4-[(1R)-1-({[1-adamantylamino]carbonyl}amino)-2-methylpropyl]-N-hydroxybenzamide] | < 100 nM | 
25 | CC(NC(=O)C(C)(C)C)c1ccc(C(=O)NO)cc1 (stereo not shown) [Compound I-59, 4-{1-[(2,2-dimethylpropanoyl)amino]ethyl}-N-hydroxybenzamide] | < 100 nM | 
26 | C[C@@H](NC(=O)c1cccn1C)c1cccc(C(=O)NO)c1 [Compound I-271, N-((1R)-1-{3-[(hydroxyamino)carbonyl]phenyl}ethyl)-1-methyl-1H-pyrrole-2-carboxamide] |  | IC50 [2]: 500 to 1000 nM
27 | CC(C)[C@@H](NC(=O)c1cc2oc(-c3ccccc3)cc2n1C)c1ccc(C(=O)NO)cc1 [Compound I-332, N-((1R)-1-{4-[(hydroxyamino)carbonyl]phenyl}-2-methylpropyl)-4-methyl-2-phenyl-4H-furo[3,2-b]pyrrole-5-carboxamide] | < 100 nM | 
28 | CC(NC(=O)c1ccc(C(C)(C)C)cc1)c1ccc(C(=O)NO)cc1 (stereo not shown) [Compound I-350, 4-tert-butyl-N-(1-{4-[(hydroxyamino)carbonyl]phenyl}ethyl)benzamide] | < 100 nM | 
29 | CC(C)C(NC(=O)Cc1cccc(C(F)(F)F)c1)c1ccc(C(=O)NO)cc1 (stereo not shown) [Compound I-195, N-hydroxy-4-[2-methyl-1-({[3-(trifluoromethyl)phenyl]acetyl}amino)propyl]benzamide] |  | IC50 [2]: 500 to 1000 nM
30 | CC(NC(=O)NC1CCCCC1)c1ccc(C(=O)NO)cc1 (stereo not shown) [Compound I-395, 4-(1-{[(cyclohexylamino)carbonyl]amino}ethyl)-N-hydroxybenzamide] | 100 to 500 nM | 
31 | CC(NC(=O)Nc1cc(Cl)cc(Cl)c1)c1ccc(C(=O)NO)cc1 (stereo not shown) [Compound I-388, 4-[1-({[(3,5-dichlorophenyl)amino]carbonyl}amino)ethyl]-N-hydroxybenzamide] | 100 to 500 nM | 
